Results reported in patent publication US20130252983A1, “ACTIVATING PHOSPHORYLATION SITE ON GLUTAMINASE C” (CORNELL UNIVERSITY, priority 2010, published 2013).
“Also recorded” adds a separate entry of the source.

Tests used:
[1] = system: NIH 3T3 cells expressing oncogenic Dbl; assay: Dbl-induced cellular transformation (focus formation, growth in low serum, soft agar); type: cell-based, mouse; settings: focus formation / growth in low serum
Procedure: FIGS. 1A-E illustrate that the small molecule 968 inhibits cellular transformation. […] Cells were fixed and stained with crystal violet for counting of foci. Right: 968 was serially diluted (10, 5, 2.5, and 1.25 μM) and evaluated for its ability to inhibit focus formation. […] After 6 days, the cells were counted. 100% represents the number of Dbl-transformed cells counted in the absence of 968 (27.5×10^4 cells). Data represent the average of 3 experiments (±s.d.). […] At the indicated times, the cells were counted. Data represent the average of 3 experiments (±s.d.).
FIGS. 2A-G illustrate effects of 968 on the transforming activity of constitutively active Rho GTPases and human breast cancer cells. […] Cells were scored after 14 days and plotted as the percentage of the total number of colonies greater than 50 μm in diameter. Data represent the average of 3 experiments (±s.d.). […] Data represent the average of 3 experiments (±s.d.). […] Data represent the average of 3 experiments (±s.d.). […] After 24 hours at 37° C., the migratory cells were fixed, stained with GIEMSA, and counted. Data represent the average of 3 experiments (±s.d.). […] Data represent the average of 3 experiments (±s.d.). […] Data represent the average of 3 experiments (±s.d.). […] Data represent the average of 3 experiments (±s.d.).
FIGS. 5A-C illustrate comparative abilities of 968 and other benzo[a]phenanthridinones to inhibit the transforming activity of oncogenic Dbl and H-Ras. […] Histograms show the relative levels of Dbl-induced focus formation for the different treatments, compared to Dbl-induced focus formation measured in the presence of DMSO (i.e. solvent control). Data represent the average of 3 experiments (mean±s.d.). […] Histograms show the relative levels of Ras(G12V)-induced focus formation measured for the different treatments, compared to Ras(G12V)-induced focus formation measured in the presence of DMSO (solvent control). Data represent the average of 3 experiments (mean±s.d.). FIG. 5C NIH 3T3 cells stably expressing H-Ras(G12V) that were cultured in DMEM supplemented with 1% calf serum, with the indicated amounts of 968. After 6 days, cells are trypsinized and counted. 100% represents the number of cells counted in the absence of 968, i.e. 26×10^4 cells. Data represent the average of 3 experiments (mean±s.d.).

[2] = molecular target: T1, mouse GAC (E. coli-expressed mouse ortholog of human GAC) (Mus musculus, UniProt D3Z7P3); assay: Recombinant glutaminase activity assay; type: biochemical
T1 construct: A plasmid encoding mouse GAC (residues 128-603) was cloned into the pET28a vector; His (N, cleaved yes); made in house; host or cells: E. coli (pET28a)
T1 sequence (D3Z7P3 128-603 isoform D3Z7P3-2): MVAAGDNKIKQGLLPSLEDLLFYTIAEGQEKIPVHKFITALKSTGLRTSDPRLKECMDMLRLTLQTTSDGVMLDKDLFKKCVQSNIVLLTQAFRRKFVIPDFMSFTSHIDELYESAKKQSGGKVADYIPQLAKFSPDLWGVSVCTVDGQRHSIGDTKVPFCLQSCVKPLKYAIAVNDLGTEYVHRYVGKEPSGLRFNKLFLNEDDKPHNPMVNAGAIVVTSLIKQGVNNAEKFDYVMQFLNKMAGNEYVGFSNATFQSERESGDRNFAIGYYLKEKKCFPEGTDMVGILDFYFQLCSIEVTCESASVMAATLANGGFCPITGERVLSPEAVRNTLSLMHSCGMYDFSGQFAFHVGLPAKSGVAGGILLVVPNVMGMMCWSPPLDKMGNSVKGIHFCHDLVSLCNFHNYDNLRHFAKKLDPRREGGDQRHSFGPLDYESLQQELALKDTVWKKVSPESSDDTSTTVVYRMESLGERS
Procedure: 100%=620 moles of glutamine hydrolyzed per minute per mole of enzyme. Data represent the average of 3 experiments (±s.d.). […] Following precipitation of the beads and re-suspension, the samples were analyzed by Western blotting with anti-V5 antibody. […] Data represent the average of 3 experiments (±s.d.). […] Data represent the average of 3 experiments (±s.d.). […] Data represent the average of 3 experiments (±s.d.). FIG. 3E NIH 3T3 cells transiently expressing Dbl were assayed for focus formation in the presence of 10 μM 968 alone or together with 7 mM dimethyl α-ketoglutarate. […] 100%=680 nM glutamine hydrolyzed per minute per 10^5 cells. Data are the average of 3 experiments (±s.d.). […] 100%=750 nM glutamine hydrolyzed per minute per 10^5 cells. Data represent the average of 3 experiments (±s.d.).
The activity of the E. coli-expressed recombinant mouse ortholog of human GAC were assayed in the presence of 0 ([…]), 10 (∇) or 20 (▪) μM 968 and inorganic phosphate in the form of dipotassium hydrogen phosphate. […] The data are plotted as GA activity as function of varying concentrations of glutamine or inorganic phosphate. The data are the average of 3 experiments and are plotted as mean±SEM.
Glutaminase activity assays were performed on recombinant enzyme as previously described (Kenny et al., “Bacterial Expression, Purification and Characterization of Rat Kidney-Type Mitochondrial Glutaminase,” Protein Expr. Purif. 31:140-148 (2003), which is hereby incorporated by reference in its entirety). A plasmid encoding mouse GAC (residues 128-603) was cloned into the pET28a vector and the protein was expressed with an N-terminal histidine (His)-tag. The tag was cleaved using thrombin and the protein was further purified by anion-exchange and gel-filtration chromatography. […] The reaction mixture was incubated at room temperature for 45 minutes and the absorbance at 340 nm was recorded for each sample against a water blank. The absorbance of the sample with just the cocktail mixture was subtracted from each reading to calculate the activity of the enzyme.

SMILES: CC1(C)CC(=O)C2=C(C1)c1c(ccc3ccccc13)NC2c1cccc(Br)c1 (centres unmarked) [Compound 335]
- blocking of Dbl-induced transformation [1]: little or no inhibition; also recorded: less effective at blocking Dbl-transformation
- inhibition of enzymatic activity of purified mouse GAC [2]: little ability to inhibit enzyme activity
